pIC50, pKi: −log10 of the molar value. One block for each compound: values may come before it.
How the values were obtained:
[1] = In vivo pharmacokinetics of pyrotinib in rats with or without azole pretreatment; set-up: species or system Sprague-Dawley rats; details: rat, 40 mg/kg azole for 7 days, then 8 mg/kg pyrotinib oral
Method: Male Sprague-Dawley rats (180–220 g) were supplied by the Experimental Animal Center of Wenzhou Medical University. The animals were placed in a controlled environment of 20–26°C and 55 ± 15% relative humidity under a 12 h light-dark cycle. Except for the 12-h fasting period before the PK study, all rats were fed a standard rodent diet and freely consumed tap water. All experimental procedures and protocols were reviewed and approved by the Animal Care and Use Committee of the Wenzhou Medical University (No. wydw 2019-650), following the Guidelines for The Care and Use of Laboratory Animals. […] After the last administration of the three azoles or 0.5% CMC-Na (control group), a single dose of 8 mg/kg pyrotinib was administered orally to all rats in each group. Each group consisted of 6 rats. The azole antifungal medication was dissolved in 0.5% carboxymethylcellulose sodium solution (CMC-Na). […] The plasma was obtained by centrifuging the blood samples at 4000 rpm for 10 min at 4°C and stored at −80°C until analysis. The frozen plasma samples were thawed at room temperature and uniformly mixed; 50 μL of plasma sample was removed and mixed with 150 μL acetonitrile-midazolam solution (containing midazolam 200 ng/ml) to precipitate the proteins, followed by vortexing for 30 s and centrifuging at 13,000 rpm for 5 min. Then 150 μL of the supernatant was collected and placed into UPLC vials with 2 μL of sample was subjected to UPLC-MS/MS analysis. GraphPad Prism 7.0 software (GraphPad Software Inc.) was used to calculate the enzyme kinetic parameters of substrates which include Vmax, Km, IC50, Ki, and αKi values. The enzyme inhibition mode was obtained using the Linear Lineweaver-Burk plots. The PK characteristics, maximal plasma concentration (Cmax), time to peak plasma concentration (Tmax), apparent volume of distribution (Vz/F), area under the plasma concentration-time curve (AUC), elimination half-life (t1/2), plasma clearance (Cl/F), and mean residence time (MRT), were calculated using DAS (Drug and Statistics) software (Version 3.2.8, The People’s Hospital of Lishui, China). The one-way ANOVA and a Dunnet’s multiple range test were used for the statistical comparisons within groups with SPSS software (Version 25.0; SPSS Inc.). Statistical significance was set at p < 0.05.

[2] = tested on: pyrotinib metabolism in rat liver microsomes (RLMs); assay: In vitro drug-drug interaction study: azole inhibition of pyrotinib metabolism (M1 formation) in RLMs; type: in vitro ADME, Sprague-Dawley (SD) rat
Method: The rats were anesthetized with 10% chloral hydrate after 12 h of starvation. […] The rat liver tissue was then accurately removed and transferred to Petri dishes at 0–4°C. The tissues were homogenized in 0.15 mol/L KCl-PBS buffer and stored at 4°C. The homogenate (CR30NX, Eppendorf, Germany) was centrifuged at 9000 rpm at 4°C for 30 min. The supernatant was transferred to another tube and was centrifuged at 105000 rpm at 4°C for 60 min. The precipitate containing liver microsomes was removed and suspended in 0.15 mol/L KCl-PBS buffer (containing 0.25 mol/L sucrose) and stored at −80°C for later use. The liver microsomal concentration was 8.838 mg/ml after the determination with the BCA protein quantification kit (Thermo Scientific, Waltham, MA, United States).
Waters Acquity UPLC I-Class (Waters, USA) was used to separate pyrotinib and midazolam. A binary solvent manager (BSM) and sample manager with a flow-through needle (SM-FTN) were used in the UPLC system. The metabolites’ effective separation was achieved using Acquity UPLC HSS T3 (100 × 2.1 mm, 1.8 μm particle size) (Waters Corporation, Milford, MA, USA) with a mobile phase of acetonitrile (solvent A) and 0.1% formic acid water containing 20 mmol ammonium acetate (solvent B). The gradient program was set as following: 0–0.3 min 10–30% A; 0.3–1 min 30–95% A; 1–2 min 95% A; 2–2.3 min 95–10% A. The mobile phase’s flow rate was 0.4 mL/min, the column temperature was set as 40 °C, and the injection volume was 2 μL. The XEVO TQD triple quadrupole mass spectrometer was equipped with an electrospray ionization (ESI) source, and the multiple reaction monitoring (MRM) mode was selected for quantification. The data were collected using the Mass lynx 4.1 software (Waters Corp.). Mass spectral data were obtained in positive electrospray mode (ESI+) in MRM mode. Nitrogen was used as desolvation (1000 L/h) and cone gases (50 L/h). The ion monitoring voltage conditions were as follows: capillary voltage, 2.5 kV; source temperature, 150°C; desolvation temperature, 500°C. Various reaction monitoring methods were used for quantitative analysis.
200 µl of the incubation mixture was set up as following: 0.3 mg/ml RLMs, 100 mM potassium phosphate buffer (pH 7.4), 1 mM NADPH, and three azole antifungal drugs. […] For fluconazole and itraconazole, the concentrations of them were all adjusted to 0.01, 0.1, 1, 5, 10, 50, and 100 µM. […] The ingredients were combined and pre-warmed for 5 min at 37°C. The reaction was initiated with NADPH and incubated at 37°C for 30 min. Then, 200 µl of acetonitrile-midazolam solution (containing midazolam 200 ng/ml) was added and the mixture was vortexed for 2 min to stop the reaction. After been centrifuged at 13000 rpm for 5 min, 2 µl aliquot of the supernatant was then used for the UPLC-MS/MS analysis.
GraphPad Prism 7.0 software (GraphPad Software Inc.) was used to calculate the enzyme kinetic parameters of substrates which include Vmax, Km, IC50, Ki, and αKi values. The enzyme inhibition mode was obtained using the Linear Lineweaver-Burk plots. The PK characteristics, maximal plasma concentration (Cmax), time to peak plasma concentration (Tmax), apparent volume of distribution (Vz/F), area under the plasma concentration-time curve (AUC), elimination half-life (t1/2), plasma clearance (Cl/F), and mean residence time (MRT), were calculated using DAS (Drug and Statistics) software (Version 3.2.8, The People’s Hospital of Lishui, China). The one-way ANOVA and a Dunnet’s multiple range test were used for the statistical comparisons within groups with SPSS software (Version 25.0; SPSS Inc.). Statistical significance was set at p < 0.05.

[3] = set-up: method as in Shi et al., 2011; details: with ketoconazole compared with ruxolitinib alone; ref Shi et al., 2011; cited from earlier work
[4] = Stability evaluation in rat plasma (UPLC-MS/MS method validation); type: in vitro ADME; details: n = 6
Excerpt: The test method was extensively verified regarding precision, accuracy, and stability, according to the EMA (European Medicines Agency) 2011 and FDA (Food and Drug Administration) 2018 criteria. In six replicates, quality control (QC) samples were generated at low, medium, and high concentrations and were utilized to validate the procedure. This method was designed to conform to EMA and FDA regulatory requirements for bioanalytical methods.

[5] = RLMs, pyrotinib 1, 2, 4, 8 µM, Lineweaver-Burk analysis

inhibitory effect on pyrotinib in vivo [1]: no inhibitory effect | pIC50 ([2]; 0.3 mg/ml RLMs, 1 mM NADPH, 37°C, 30 min, n = 3): 6.57 | pKi [2, 5]: 6.30 | αKi [2, 5]: 0.334 µM
SMILES: CCC(C)n1ncn(-c2ccc(N3CCN(c4ccc(OCC5COC(Cn6cncn6)(c6ccc(Cl)cc6Cl)O5)cc4)CC3)cc2)c1=O (centres unmarked) [itraconazole, Itraconazole]

SMILES: N#CC[C@H](C1CCCC1)n1cc(-c2ncnc3[nH]ccc23)cn1 [ruxolitinib]
increase of plasma exposure [3]: 91%

Stability in rat plasma, RE ([4]; 4°C, 24 h, high concentration (pyrotinib 4500, pyrotinib M1 0.75 μM)): 103.58% | Stability in rat plasma, RE ([4]; 4°C, 24 h, low concentration (pyrotinib 15, pyrotinib M1 0.015 μM)): 104.44% | Stability in rat plasma, RE ([4]; 4°C, 24 h, medium concentration (pyrotinib 150, pyrotinib M1 0.15 μM)): 108.67% | Stability in rat plasma, RE ([4]; Room temperature, 6 h, high concentration (pyrotinib 4500, pyrotinib M1 0.75 μM)): 108.42% | Stability in rat plasma, RE ([4]; Room temperature, 6 h, low concentration (pyrotinib 15, pyrotinib M1 0.015 μM)): 102.22% | Stability in rat plasma, RE ([4]; Room temperature, 6 h, medium concentration (pyrotinib 150, pyrotinib M1 0.15 μM)): 102.44% | Stability in rat plasma, RE ([4]; −80°C, 7 days, high concentration (pyrotinib 4500, pyrotinib M1 0.75 μM)): 104.47% | Stability in rat plasma, RE ([4]; −80°C, 7 days, low concentration (pyrotinib 15, pyrotinib M1 0.015 μM)): 109.33% | Stability in rat plasma, RE ([4]; −80°C, 7 days, medium concentration (pyrotinib 150, pyrotinib M1 0.15 μM)): 107.56%
SMILES: CCOc1cc2ncc(C#N)c(Nc3ccc(O)c(Cl)c3)c2cc1NC(=O)/C=C/[C@@H]1CCCN1C [Pyrotinib M1, O-depicolyl pyrotinib]

Reference: PMC9490176 (Frontiers in Pharmacology, 2022)
